Measured values published in patent publication US4206215A, “Antimicrobial bis-[4-(substituted-amino)-1-pyridinium]alkanes” (Sterling Drug Inc., priority 1977, dated 1980).
Read-outs that look alike come from different tables or passages of the source.

Experiments:
S. Aureus Smith = assay: In vitro antibacterial activity, MIC (modified Autotiter method); format: cell-based, Staphylococcus aureus; settings: for MIC: Staphylococcus aureus, 20 h, read-out: MIC S. Aureus Smith
Protocol: (§1) The antibacterial and antifungal activity of representative examples of the compounds of Formula I was determined using a modification of the Autotiter method described by Goss, et al. Applied Microbiology 16 (9) 1,414-1,416 (1968) in which a 1,000 mcg./ml. solution of the test compound is prepared. To the first cup of the Autotray is added 0.1 ml. of the test solution. Activation of the Autotiter initiates a sequence of operations by which 0.05 ml. of the test compound solution is withdrawn from the cup by a Microtiter transfer loop and diluted in 0.05 ml. of sterile water. Following this operation, 0.05 ml. of inoculated double-strength semisynthetic medium (glucose) is added automatically to each cup. The overall operation results in final drug concentrations ranging from 500 to 0.06 mcg./ml. in twofold decrements. […] The compounds were thus tested as solutions against a variety of gram positive and gram negative bacteria including Staphylococcus aureus, Proteus mirabilis, Escherichia coli, Klebsiella pneumoniae, Pseudomonas aeruginosa, Streptococcus pyogenes, and against such fungi as Aspergillus niger, Candida albicans and Trichophyton mentagrophytes.

A. niger 16404 = assay: In vitro antifungal activity, MIC (modified Autotiter method); format: cell-based, Aspergillus niger; settings: for MIC: Aspergillus niger, 16404, 20 h, read-out: MIC A. niger 16404
Protocol: as §1

P. mirab. MGH-1 = assay: In vitro antibacterial activity, MIC (modified Autotiter method); format: cell-based, Proteus mirabilis; settings: for MIC: Proteus mirabilis, 20 h, read-out: MIC P. mirab. MGH-1
Protocol: as §1

E. coli Vogel = assay: as above; format: cell-based, Escherichia coli; settings: for MIC: Escherichia coli, 20 h, read-out: MIC E. coli Vogel
Protocol: as §1

E. coli 100/B22 = assay: as above; format: cell-based, Escherichia coli; settings: Escherichia coli, 100/B22, 20 h, 18-20 hours at 37° C.; read-out: MIC E. coli 100/B22
Protocol: as §1

E. coli AB1932-1 = assay: as above; format: cell-based, Escherichia coli; settings: Escherichia coli, AB19321, 20 h, 18-20 hours at 37° C.; read-out: MIC E. coli AB1932-1
Protocol: as §1

T. menta. 9129 = assay: In vitro antifungal activity, MIC (modified Autotiter method); format: cell-based, Trichophyton mentagrophytes; settings: for MIC: Trichophyton mentagrophytes, 20 h, read-out: MIC T. menta. 9129
Protocol: as §1

Ps. aerug. MGH-2 = assay: In vitro antibacterial activity, MIC (modified Autotiter method); format: cell-based, Pseudomonas aeruginosa; settings: for MIC: Pseudomonas aeruginosa, 20 h, read-out: MIC Ps. aerug. MGH-2
Protocol: as §1

K. pneum. 39645 = assay: as above; format: cell-based, Klebsiella pneumoniae; settings: for MIC: Klebsiella pneumoniae, 20 h, read-out: MIC K. pneum. 39645
Protocol: as §1

S. pyogen. C203 = assay: as above; format: cell-based, Streptococcus pyogenes; settings: for MIC: Streptococcus pyogenes, 20 h, read-out: MIC S. pyogen. C203
Protocol: as §1

C. albicans 10231 = assay: In vitro antifungal activity, MIC (modified Autotiter method); format: cell-based, Candida albicans; settings: for MIC: Candida albicans, 10231, 20 h, read-out: MIC C. albicans 10231
Protocol: as §1

C. albicans Wisc. = assay: as above; format: cell-based, Candida albicans; settings: Candida albicans, 20 h, 18-20 hours at 37° C.; read-out: MIC C. albicans Wisc.
Protocol: as §1

Compound | MIC (S. Aureus Smith; 18-20 hours at 37° C.) [µg/mL] | MIC (A. niger 16404; 18-20 hours at 37° C.) [µg/mL] | MIC (P. mirab. MGH-1; 18-20 hours at 37° C.) [µg/mL] | MIC (E. coli Vogel; 18-20 hours at 37° C.) [µg/mL] | MIC (E. coli 100/B22) [µg/mL] | MIC (E. coli AB1932-1) [µg/mL] | MIC (T. menta. 9129; 18-20 hours at 37° C.) [µg/mL] | MIC (Ps. aerug. MGH-2; 18-20 hours at 37° C.) [µg/mL] | MIC (K. pneum. 39645; 18-20 hours at 37° C.) [µg/mL] | MIC (S. pyogen. C203; 18-20 hours at 37° C.) [µg/mL] | MIC (C. albicans 10231; 18-20 hours at 37° C.) [µg/mL] | MIC (C. albicans Wisc.) [µg/mL] | also measured
CCCCCCNc1cc[n+](CCCCCCCCC[n+]2ccc(NCCCCCC)cc2)cc1 [Example 19, 1,9-bis-[4-(hexylamino)-1-pyridinium]-nonane dibromide] | 0.39 | 15.6 | 125 | 1.95 | 1.95 | 1.95 | 3.9 | 125 | 3.9 | 0.49 | 1.95 | 3.9 | –
Nc1cc[n+](CCCCCCCCCCCC[n+]2ccc(N)cc2)cc1 [V, 1,12-bis-(4-amino-1-pyridinium)dodecane dibromide, reference compound] | 1.95 | 31.3 | > 125 | 62.5 | – | – | 3.9 | > 62.5 | > 62.5 | 1 | 31.3 | – | –
Fc1ccc(Nc2cc[n+](CCCCCC[n+]3ccc(Nc4ccc(F)cc4)cc3)cc2)cc1 [Example 83B, 1,6-bis-[4-(p-fluorophenylamino)-1-pyridinium]hexane dibromide] | 15.6 | 31.3 | > 125 | 31.3 | 15.6 | 15.6 | 31.3 | > 62.5 | > 125 | 7.8 | 31.3 | 31.3 | –
CCCCCCCCCCNc1cc[n+](CCCCCC[n+]2ccc(NCCCCCCCCCC)cc2)cc1 [Example 64B, 1,6-bis-[4-(decylamino)-1-pyridinium]hexane dibromide] | 1 | 7.8 | 1.95 | 1.95 | 7.8 | 1.95 | 1 | 7.8 | 3.9 | 1 | 1.95 | 3.9 | –
CCCCCCCCCCCCNc1cc[n+](CCCCCCCCCCCC[n+]2ccc(NCCCCCCCCCCCC)cc2)cc1 [Example 75, 1,12-bis-[4-(dodecylamino)-1-pyridinium]dodecane dibromide] | 31.3 | > 62.5 | > 62.5 | > 62.5 | > 62.5 | > 62.5 | 15.6 | > 62.5 | > 62.5 | 15.6 | > 62.5 | > 62.5 | –
CCCCCCCCCCCCNc1cc[n+](CCCCCC[n+]2ccc(NCCCCCCCCCCCC)cc2)cc1 [Example 70, 1,6-bis-[4-(dodecylamino)-1-pyridinium]hexane dibromide] | 7.8 | 62.5 | > 62.5 | 31.3 | 62.5 | > 62.5 | 7.8 | > 62.5 | > 62.5 | 7.8 | 15.6 | 31.3 | –
CCCCCCCCCNc1cc[n+](CCCCCCCCC[n+]2ccc(NCCCCCCCCC)cc2)cc1 [Example 50, 1,9-bis-[4-(nonylamino)-1-pyridinium]nonane dibromide] | 1.95 | 7.8 | 3.9 | 1.95 | 1.95 | 3.9 | 1.95 | 3.9 | 3.9 | 1.95 | 3.9 | 3.9 | –
CCCCCCCCNc1cc[n+](CCCCCCCCCCCCCC[n+]2ccc(NCCCCCCCC)cc2)cc1 [Example 46, 1,14-bis-[4-(octylamino)-1-pyridinium]tetradecane dibromide] | 1 | 15.6 | 3.9 | 7.8 | 3.9 | 3.9 | 1.95 | 3.9 | 7.8 | 1.95 | 7.8 | 7.8 | –
Nc1cc[n+](CCCCCC[n+]2ccc(N)cc2)cc1 [IV, 1,6-bis-(4-amino-1-pyridinium)hexane dibromide, reference compound] | 125 | 500 | > 500 | 250 | – | – | > 500 | > 500 | > 500 | 62.5 | > 500 | – | –
Cc1cc(N)cc[n+]1CCCCCCCCC[n+]1ccc(N)cc1C [IX, 1,9-bis-(4-amino-2-methyl-1-pyridinium)nonane dibromide, reference compound] | 3.9 | 31.3 | > 500 | 31.3 | – | – | 7.8 | > 500 | 250 | 3.9 | 31.3 | – | –
Nc1cc[n+](CCCCCCCCC[n+]2ccc(N)cc2)cc1 [VII, 1,9-bis-(4-amino-1-pyridinium)nonane dibromide, reference compound] | 31.3 | 250 | > 500 | 250 | – | – | 15.6 | > 500 | 500 | 7.8 | 31.3 | – | –
CCCCCCCCNc1cc[n+](CCCCCCCCCC[n+]2ccc(NCCCCCCCC)cc2)cc1 [Example 10C, 1,10-bis-[4-(octylamino)-1-pyridinium]decane bis(1-oxo-2-pyridinethiolate)] | – | – | – | – | – | – | – | – | – | – | – | – | MIC S. Aureus Smith (S. Aureus Smith; 18-20 hours at 37° C.): 1.0 µg/mL; MIC A. niger 16404 (A. niger 16404; 18-20 hours at 37° C.): 1.95 µg/mL; MIC P. mirab. MGH-1 (P. mirab. MGH-1; 18-20 hours at 37° C.): 1.95 µg/mL; MIC E. coli Vogel (E. coli Vogel; 18-20 hours at 37° C.): 1.0 µg/mL; MIC T. menta. 9129 (T. menta. 9129; 18-20 hours at 37° C.): 1.0 µg/mL; MIC Ps. aerug. MGH-2 (Ps. aerug. MGH-2; 18-20 hours at 37° C.): 3.9 µg/mL; MIC K. pneum. 39645 (K. pneum. 39645; 18-20 hours at 37° C.): 1.95 µg/mL; MIC S. pyogen. C203 (S. pyogen. C203; 18-20 hours at 37° C.): 0.5 µg/mL; MIC C. albicans 10231 (C. albicans 10231; 18-20 hours at 37° C.): 1.0 µg/mL
Cc1cc(N)cc[n+]1CCCCCCCC[n+]1ccc(N)cc1C [VIII, 1,8-bis-(4-amino-2-methyl-1-pyridinium)octane dibromide, reference compound] | – | – | – | – | – | – | – | – | – | – | – | – | MIC (S. Aureus Smith): 31.3 µg/mL; MIC (A. niger 16404): 125 µg/mL; MIC (P. mirab. MGH-1): > 500 µg/mL; MIC (E. coli Vogel): > 250 µg/mL; MIC (T. menta. 9129): 15.6 µg/mL; MIC (Ps. aerug. MGH-2): > 500 µg/mL; MIC (K. pneum. 39645): 500 µg/mL; MIC (S. pyogen. C203): 7.8 µg/mL; MIC (C. albicans 10231): 125 µg/mL
Nc1cc[n+](CCCC[n+]2ccc(N)cc2)cc1 [III, 1,4-bis-(4-amino-1-pyridinium)butane dibromide, reference compound] | 125 | 500 | > 500 | 250 | – | – | 500 | > 500 | > 500 | 62.5 | > 500 | – | –
CC(CCCCCCCCC[n+]1ccc(N)cc1)[n+]1ccc(N)cc1 (stereo not drawn) [VI, 1,10-bis-(4-amino-1-pyridinium)-1-methyldecane dibromide, reference compound] | 15.6 | 250 | > 500 | 250 | – | – | 15.6 | > 500 | 500 | 15.6 | 31.3 | – | –
